Patent publication US9487489B2, “Halogen-substituted pyrazole derivatives as pest-control agents” (BAYER CROPSCIENCE AKTIENGESELLSCHAFT, priority 2013, dated 2016)

Columns and labels:
[1] = logP determination by HPLC on a reversed-phase column (C18), EEC Directive 79/831 Annex V.A8; assay type: physicochemical; settings: HPLC on reversed-phase column (C18), acetonitrile/water with formic acid, EEC Directive 79/831 Annex V.A8
In short: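 Per EEC 79/831 Annex V.A8, values derive from HPLC retention at 2.0 ml/min and 55° C on a 50*4.6 C18 column. The 10→95% acetonitrile gradient (0.1%/0.09% formic acid) lasted 4.25 min plus a 1.25 min hold; mass detection was by MSD.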

[2] = system: cattle ticks (Boophilus microplus) Parkhurst strain, SP-resistant; assay: Boophilus microplus dip test (BOOPMI Dip); assay type: in vivo; settings: application rate 100 ppm, assessed after 7 days
Method: B. Boophilus microplus-dip Test (BOOPMI Dip)
Test animals: cattle ticks (Boophilus microplus) Parkhurst strain, SP-resistant
Solvent: dimethyl sulphoxide
10 mg of active compound are dissolved in 0.5 ml of dimethyl sulphoxide. For the purpose of preparing a suitable formulation, the active compound solution is diluted with water to the concentration desired in each case.
This active compound preparation is pipetted into tubes. 8-10 adult engorged female cattle ticks (Boophilus microplus) are transferred into a further tube with holes. The tube is immersed into the active compound formulation, and all ticks are completely wetted. After the liquid has run out, the ticks are transferred on filter discs into plastic dishes and stored in a climate-controlled room.
The activity is assessed after 7 days by laying of fertile eggs. Eggs whose fertility is not visible from the outside are stored in a climate-controlled cabinet until the larvae hatch after about 42 days. An efficacy of 100% means that none of the ticks has laid any fertile eggs; 0% means that all eggs are fertile.

[3] = system: engorged adult female cattle ticks (Boophilus microplus); assay: Boophilus microplus injection test (BOOPMI Inj); assay type: in vivo; settings: application rate 20 μg/animal; injection into abdomen; assessed after 7 days
In short: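 Efficacy is read at 7 days as fertile egg laying (100% = no fertile eggs laid; 0% = all eggs fertile), with eggs of unclear fertility stored until larvae hatch at about 42 days. Five engorged adult females per dose each receive an abdominal injection of 1 μl compound dissolved in DMSO.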

[4] = system: adult cat fleas (Ctenocephalides felis); assay: Ctenocephalides felis oral test (CTECFE); assay type: in vivo; settings: application rate 100 ppm in citrated cattle blood; after 2 days
In short: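 Mortality read at 2 days as percent of fleas killed. Compound predissolved in DMSO, diluted into citrated cattle blood and offered to roughly 20 unfed adult C. felis via parafilm membrane feeder.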

[5] = system: L1 larvae of the Australian sheep blowfly (Lucilia cuprina); assay: Lucilia cuprina test (LUCICU); assay type: in vivo; settings: application rate 100 ppm; after 2 days
In short: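 Percent mortality read at 2 days; 100% = all larvae killed, 0% = none. Test compound, predissolved in DMSO and water-diluted to the wanted level, was mixed into minced horsemeat holding roughly 20 first-instar larvae.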

[6] = system: adult houseflies (Musca domestica); assay: Musca domestica test (MUSCDO); assay type: in vivo; settings: application rate 100 ppm; after 2 days
In short: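 Groups of 10 adult Musca domestica exposed to a sugar-soaked sponge treated with the water-diluted DMSO preparation of compound at the chosen concentration. Percent kill read at day 2, where 0% means no flies killed and 100% all killed.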

[7] = system: green peach aphid (Myzus persicae); assay: Myzus persicae spray test (MYZUPE); assay type: in vivo; settings: Chinese cabbage leaf discs, after 6 days
Method: G. Myzus persicae-spray Test (MYZUPE)
Solvents: 78 parts by weight of acetone
• 1.5 parts by weight of dimethylformamide Emulsifier: alkylaryl polyglycol ether
To produce a suitable preparation of active compound, 1 part by weight of active compound is dissolved using the stated parts by weight of solvent and made up with water comprising an emulsifier concentration of 1000 ppm until the desired concentration is reached. To produce further test concentrations, the preparation is diluted with emulsifier-containing water.
Discs of Chinese cabbage leaves (Brassica pekinensis) infested by all stages of the green peach aphid (Myzus persicae) are sprayed with an active compound preparation of the desired concentration.
After 6 days, the efficacy in % is determined 100% here means that all of the aphids have been killed; 0% means that no aphids have been killed.

[8] = system: larvae of the mustard beetle (Phaedon cochleariae); assay: Phaedon cochleariae spray test (PHAECO); assay type: in vivo; settings: Chinese cabbage leaf discs, after 7 days
In short: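 Kill of mustard beetle larvae is read as % mortality 7 days after spraying. Spray liquid: active compound in acetone plus dimethylformamide, brought up with water holding 1000 ppm alkylaryl polyglycol ether emulsifier and diluted further in emulsifier-water.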

[9] = system: caterpillars of the armyworm (Spodoptera frugiperda); assay: Spodoptera frugiperda spray test (SPODFR); assay type: in vivo; settings: maize leaf discs, after 7 days
In short: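 Percent kill read at day 7 on caterpillar-infested maize leaf discs. Discs were first sprayed with aqueous emulsifier-containing (1000 ppm) preparations made from acetone/dimethylformamide solutions, and dried. Scale: 0% none dead, 100% all dead.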

[10] = system: greenhouse red spider mite (Tetranychus urticae); assay: Tetranychus urticae spray test, OP-resistant (TETRUR); assay type: in vivo; settings: bean leaf discs, after 6 days
In short: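 Percent kill, scored 6 days post-spray (0% = none dead, 100% = all dead), on Phaseolus vulgaris leaf discs infested with every life stage of the OP-resistant spider mite. Compound dissolved in acetone plus DMF, diluted to test concentration with emulsifier-containing water (1000 ppm).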

[11] = system: adult cat fleas (Ctenocephalides felis); assay: Ctenocephalides felis in vitro contact test with adult cat fleas (T1); settings: after 48 h
In short: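 Adult cat fleas (Ctenocephalides felis), 5-10 per tube, were exposed to the inner surface of 25 ml test tubes coated with compound in acetone. Tubes were incubated lying flat under ambient conditions. Efficacy was then read by standing tubes upright and knocking the fleas to the floor. Fleas that stayed motionless or moved uncoordinatedly counted as dead or moribund, where 100% means all fleas dead or moribund and 0% means none harmed.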

[12] = system: adult dog ticks (Rhipicephalus sanguineus); assay: Rhipicephalus sanguineus in vitro contact test with adult brown dog ticks (T2); settings: after 48 h
In short: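 Acetone solutions coated onto test tube walls and floor, giving 5 μg/cm^2 at 900 ppm. Five to ten adult ticks held per tube in the dark at room temperature for 48 h, then heated at 45-50° C for up to 5 min; efficacy is the percentage of dead or moribund ticks unable to climb away.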

SMILES	logP [1]	efficacy (laying of fertile eggs) [2]	efficacy (laying of fertile eggs) [3]	efficacy (kill in %) [4]	efficacy (kill in %) [5]	efficacy (kill in %) [6]	efficacy in % ([7]; application rate 500 g/ha)	efficacy in % ([8]; application rate 500 g/ha)	efficacy in % ([9]; application rate 500 g/ha)	efficacy in % ([10]; application rate 500 g/ha)	efficacy (dead or moribund fleas) ([11]; application rate 1 μg/cm^2)	efficacy (dead or moribund fleas) ([11]; application rate 5 μg/cm^2)	efficacy in % ([7]; application rate 100 g/ha)	efficacy in % ([8]; application rate 100 g/ha)	efficacy in % ([9]; application rate 100 g/ha)	efficacy in % ([10]; application rate 100 g/ha)	efficacy (dead or moribund ticks) ([12]; application rate 1 μg/cm^2)	efficacy (dead or moribund ticks) ([12]; application rate 5 μg/cm^2)
CNC(=O)C1(N(C)C(=O)c2cc(-c3cnn(-c4c(C(F)(F)F)c(C(F)(F)C(F)(F)F)nn4C)c3)ccc2Cl)CC1 [Ic-97]	3.58	90%	100%	100%	100%	100%	100%	100%	100%	100%	100%	100%	–	–	–	–	–	–
CC(C)NC(=O)c1cc(-c2cnn(-c3c(C(F)(F)F)c(C(F)(F)C(F)(F)F)nn3C)c2)ccc1Cl [Ic-113]	4.01	100%	–	–	–	–	–	–	–	–	100%	100%	90%	100%	100%	100%	80%	100%
Cn1ccc(NC(=O)c2cc(-c3cnn(-c4c(C(F)(F)F)c(C(F)(F)C(F)(F)F)nn4C)c3)ccc2Cl)n1 [Ic-159]	–	80%	100%	100%	100%	100%	100%	100%	100%	100%	100%	100%	–	–	–	–	–	–
Cn1nc(C(F)(F)C(F)(F)F)c(C(F)(F)F)c1-n1cc(-c2ccc([N+](=O)[O-])c(C(=O)NC3(C#N)CC3)c2)cn1 [Ic-65]	3.48	100%	100%	100%	100%	100%	–	–	–	–	100%	100%	90%	100%	83%	100%	–	–
Cn1nc(C(F)(F)C(F)(F)F)c(C(F)(F)F)c1-n1cc(-c2ccc(Cl)c(C(=O)NCC3CC3)c2)cn1 [Ic-153]	–	100%	100%	100%	100%	100%	90%	100%	100%	100%	100%	100%	–	–	–	–	80%	80%
Cn1nc(C(F)(F)C(F)(F)F)c(C(F)(F)F)c1-n1cc(-c2ccc(Cl)c(C(=O)N[C@@H]3CCOC3)c2)cn1 [Ic-164]	–	100%	100%	100%	100%	90%	90%	100%	100%	100%	100%	100%	–	–	–	–	100%	100%
Cn1cc(NC(=O)c2cc(-c3cnn(-c4c(C(F)(F)F)c(C(F)(F)C(F)(F)F)nn4C)c3)ccc2Cl)cn1 [Ic-166]	–	100%	100%	100%	100%	100%	90%	100%	100%	100%	100%	100%	–	–	–	–	100%	100%
C#CCNC(=O)c1cc(-c2cnn(-c3c(C(F)(F)F)c(C(F)(F)C(F)(F)F)nn3C)c2)ccc1Cl [Ic-109]	3.69	100%	–	–	–	–	–	–	–	–	100%	100%	100%	100%	100%	100%	100%	100%
C=C=CCNC(=O)c1cc(-c2cnn(-c3c(C(F)(F)F)c(C(F)(F)C(F)(F)F)nn3C)c2)ccc1Cl [Ic-111]	4.04	100%	–	–	–	–	–	–	–	–	100%	100%	100%	100%	100%	100%	100%	100%
Cn1nc(C(F)(F)C(F)(F)F)c(C(F)(F)F)c1-n1cc(-c2ccc(Cl)c(C(=O)NCC=CCl)c2)cn1 [Ic-112]	4.13	100%	–	–	–	–	–	–	–	–	100%	100%	100%	–	100%	100%	100%	100%
COCCNC(=O)c1cc(-c2cnn(-c3c(C(F)(F)F)c(C(F)(F)C(F)(F)F)nn3C)c2)ccc1Cl [Ic-139]	–	100%	100%	100%	–	–	100%	100%	100%	100%	100%	100%	–	–	–	–	–	–
Cn1nc(C(F)(F)C(F)(F)F)c(C(F)(F)F)c1-n1cc(-c2ccc(Cl)c(C(=O)NCC(C)(F)F)c2)cn1 [Ic-80]	4.05	80%	100%	100%	100%	100%	–	–	–	–	–	–	90%	100%	100%	100%	–	–
